A word on the AUC(0-inf): it is total exposure, with the tail of the curve extrapolated.

A short description of data set [1]: Preliminary dose-finding studies, intravenous vs intratracheal 3.0 μg neutral pH T3. The data set is classed as in vivo, rats. Here is the method: FIG. 6. […] A single dose of T3 was administered intravenously (diamonds) or via intratracheal instillation (squares). Samples were analyzed for total T3 using a chemiluminescence assay.
Another data set in a line: in vivo. Details: species or system Sprague-Dawley rats. The note with it: Sprague-Dawley, rat; for Cmax_D / Vz_F_obs / AUC(0-inf): inhaled or intranasal; for AUC(0-inf): 2.73 ug. The method, then: Sixty animals (plus two spare animals/sex/group) were anesthetized and dosed via intratracheal instillation of test or control materials for five consecutive days. On the day after the last dose a terminal blood collection was performed for clinical pathology, after which animals were euthanized and a gross examination of all organs was performed by a board-certified veterinary pathologist. Select tissues were collected for histopathology. […] Terminal blood collection was performed at two designated time points per animal up to 24 hours after administration for toxicokinetic evaluation. TK animals were euthanized without further evaluation after the final blood collection. All animals were acclimated for a minimum of seven days prior to the dosing procedure. Animals underwent baseline observations and examinations prior to the initiation of the study, and clinical observations and body weight monitoring were performed throughout the in-life portion of the study. All animals received the same dose volume (0.3 mL) of either test or control materials. This maximum feasible dose (MFD) is constrained by the maximum volume that can be safely and reproducibly (over five days) instilled into lungs of rats weighing 250 g to 350 g, which was determined in preliminary toxicology studies to be 0.3 mL. Actual doses delivered are reported as both μg/kg body weight and μg/gm wet lung weight. The toxicity phase animals were 72-135 days of age at the time of initial dosing. Males weighed between 256.52 g and 307.50 g with a mean±standard deviation of 286.74±11.77 g, and females weighed between 250.46 g and 299.01 g with a mean±standard deviation of 260.64±10.34 g. The TK phase animals were 68-144 days of age at the time of initial dosing. Males weighed between 261.23 g and 316.19 g; females weighed between 250.06 g and 280.32 g.
For toxicokinetic experiments, rats were anesthetized with combination of ketamine 40 mg/kg to 200 mg/kg and xylazine 1 mg/kg to 7 mg/kg, intraperitoneally (IP), to effect for dosing procedures, and dosed intratracheally with liothyronine sodium injection as previously described. Depending on the duration of time between dosing and the first or second blood collection time points, animals either had blood collected while still anesthetized under the injectable anesthetics, or if recovered, they were anesthetized with Isoflurane 2-5% and oxygen 1-1.5 L/minute by inhalation anesthesia via nose cone, as needed, to maintain adequate anesthesia depth (assessed by toe pinch). Topical proparicaine anesthetic ophthalmic solution was applied to each eye prior to performing the first blood collection and allowed time to take effect. Collection of serum samples for TK analysis was as described for serum chemistry samples above, and samples were stored at ≤−70° C. until assayed. Animals were euthanized with EUTHASOL (Virbac Corp., Fort Worth, TX)≥86 mg/kg IP to effect following the final blood collection.
For assessment of serum T3 levels samples were sent to the Fairview University of Minnesota Medical Center East Bank Diagnostic Laboratory for analysis, a clinical laboratory certified by CLIA and CAP. Prior to sending serum samples to the analytical lab each sample was diluted 1:4 or 1:8 in normal (0.9%) saline. […] Samples were analyzed by a chemiluminescence assay for total triiodothyronine (T3).
Toxicokinetic parameters were estimated using Phoenix 64 WinNonlin pharmacokinetic software version 7.0. (Pharsight Corp., Mountain View, CA). A non-compartmental (NCA) approach consistent with the route of administration was used for parameter estimation. […] Whenever possible, mean concentrations were derived from three animals/gender/time point. Parameters were estimated using sampling times relative to the start of each dose administration. The raw data was converted to ng/ml of serum by dividing the […] values by 100 and then multiplying by the dilution factor for that sample, either 4 or 8. […]

The next data set deals with Akt. Nature of the data set: Akt phosphorylation in RLE-6TN cells under hyperoxia. The data set is classed as cell-based, rat. Particulars: 24 hours hyperoxia, T3 added for 20 minutes; vs room air control and hyperoxia alone. Here is the method: (§1) The cells were lysed in lysis buffer containing 20 mM Tris HCl (pH 7.5), 150 mM NaCl, 1 mM EDTA, 1 mM EGTA, 1% (vol/vol) Triton X-100 with protease inhibitors (1 mM PMSF, 2 μg/ml pepstatin, and 10 μg/ml each of aprotinin and leupeptin), and phosphatase inhibitors (2.5 mM sodium pyrophosphate, 1 mM β-glycerophosphate, and 1 mM Na3VO4). The lysate was drawn 10 times through a 25-gauge needle on ice for further lysis and then was centrifuged at 13,000 rpm for 15 minutes at 4° C. The supernatant was collected, and the protein concentrations were determined by use of the BCA protein assay kit (Sigma-Aldrich, St. Louis, MO). Immediately after this step, equal amounts of protein were subjected to Western blotting analysis.

Data set [2] relates to rat lung mucosa and airspaces. As to the kind of experiment: Preliminary studies: intratracheal instillation of liothyronine sodium without pH adjustment. The note with it: pH of >10.0 as supplied commercially.
Description: (§2) Using aseptic technique, vials of liothyronine sodium were opened and the entire contents were transferred into sterile 1.5 mL Eppendorf tubes. 80-90 μL of 1.0 N HCl was added to the tube and gently vortexed, and the pH was measured using pH test strips (pH 4.5 to 10.0, Ricca Chemical Co., Arlington, TX). Additional HCl was titrated in gradually, as needed, until the pH was in the desired range. […] This solution was stored at 4° C. and used for up to 26 hours after pH adjustment procedure.
For data set [3] the following is noted: single oral dose of 50 micrograms; cited from earlier work.
A further data set deals with HO-1. Nature of the data set: Western blot of HO-1 protein in RLE-6TN cells under hyperoxia. Type of data set: cell-based, rat. The note with it: T3 10^−6 M. Here is the method: FIG. 10. HO-1 Upregulation is required for T3-increased RLE-6TN cell survival in hyperoxia. […] The cells were then collected for Western Blot analysis. (B) The cells were incubated in 21% O2 and 5% CO2 for 72 hours in the present of HO-1 inhibitor Tin Protoporphyrin IX(10^−6 M) tinT3 (10^−6 M). […] Cell viability is assessed with trypan blue. The number of viable cells under specific conditions is presented as a percentage of the cell number related to hyperoxia alone. Data are mean±s.d. of three independent experiments with *=P<0.05; **=P<0.01.
At the end of the hyperoxia exposure period, the viable cells were counted by trypan blue dye exclusion.
as §1

Data set [4] deals with rat lung mucosa and airspaces. The note with it: in vivo.
Description: as §2
Where [5] appears, read: 3.0 μg T3 intratracheally vs 3.0 μg intravenously.

Take `N[C@@H](Cc1cc(I)c(Oc2ccc(O)c(I)c2)c(I)c1)C(=O)O` [T3, triiodothyronine]: in data set [1] (setting [5]), the “AUC after intratracheal relative to intravenous administration” value is “⅕” and the “T3 Cmax after intratracheal relative to intravenous administration” value is 1/17. Moreover, the “Acute effects on physiologic parameters (respiratory rate, O2 saturation, heart rate)” value in data set [1] (single intravenous delivery or five days of intratracheal delivery of 3.0 μg neutral pH T3) is given as “no acute effects on physiologic parameters”. In addition, in “in vivo” (female), the Cl_F_obs amounted to 30.10 mL/h, the HL_Lambda_z stood at 2.85 h, the Cmax_D was 6.12 ng/mL/µg and the Vz_F_obs was 123.60 mL. The AUC(0-inf) in the data set “in vivo” (female) was determined as 89.7 ng·h/mL. Besides, in the data set “in vivo” (male), the Cl_F_obs came out at 74.29 mL/h, the HL_Lambda_z was 3.17 h, the Cmax_D is 2.44 ng/mL/µg and the Vz_F_obs was 339.44 mL. Moreover, the area under the curve AUC(0-inf) in the data set “in vivo” (male) worked out at 36.3 ng·h/mL. Besides, the “Phosphorylation of Akt at Ser473” value with Akt was “augmented phosphorylation of Akt at Ser473”. In data set [2], the “Tolerability of intratracheal instillation” value is on record as “do not tolerate”. In addition, in data set [3], the “Time of peak serum concentration” value was 2.5 h and the “Time of physiologic effect of increased heart rate” value is on record as “five hours”. Besides, in the data set with HO-1, the “Total cellular HO-1 protein” value is given as “significantly enhanced total cellular protein of HO-1”. The “Toxicity of instillation into airway and lung” value in data set [4] is “extremely toxic to rat lung mucosa and airspaces”.

(Values after patent US12569459B2, “Compositions and methods for treating pulmonary edema or lung inflammation” (priority 2020, dated 2026).)
